This is an account of results in US10314883B2, “Compositions and methods for regulating blood pressure” (University of Virginia Patent Foundation, priority 2015, dated 2019).

Assay [1] addresses T1, Panx1 (Mus musculus, UniProt Q9JIP4).
T1 construct: we progressively substituted amino acids in this region of full-length Panx1 with alanine residues; HA; expressed in transfected cells; host or cells: HEK293T cells, transient co-transfection with alpha1DAR plasmid (Origene, NM_013460, C-terminal Myc-DDK)
Put plainly: ATP release from HEK293 cells cotransfected with mPanx1 and α1DAR. In kind it is cell-based. The conditions noted are these: peptide 3 μmol/L, phenylephrine 100 μmol/L. The procedure: Human Embryonic Kidney (HEK) 293T cells were cultured as previously described, and were used until passage 20. For ATP measurements, 50,000 cells/well were seeded in 24 well plates pre-coated with 0.01% poly-L-lysine, and transfected using Lipofectamine 2000 (Invitrogen) according to the manufacturer protocol. Briefly, 0.4 μg of α1DAR and 0.4 μg of Panx1^WT, Panx1^KYP>AAA, Panx1^IVEQ>AAA or Panx1^YLK>AAA plasmids were added to each well along with 2 μl of Lipofectamine 2000. For electrophysiology measurements, 4 μg of α1DAR plasmid, 2 μg of Panx1^WT, Panx1^KYP>AAA, Panx1^IVEQ>AAA or Panx1^YLK>AAA plasmids, and 0.5 μg of GFP plasmid were mixed with 10 μl Lipofectamine 2000 and added to a well of 6-well plate seeded with ˜70% confluent HEK cells. Cells were split the next morning and plated onto a glass coverslip for recording. […]
The ectonucleotidase inhibitor ARL67156 (300 μmol/L) was applied to each well. […] The ATP concentration was measured by adding 50 μL of luciferin:luciferase reagent (ATP bioluminescence assay kit HSII; Roche), which was injected into each well and the luminescence was immediately recorded. Data are expressed as a percent increase in ATP concentration compared to unstimulated condition. […] Data were analyzed using a Kruskall Wallis test (non-parametric one-way ANOVA) followed by Dunn's post-hoc test.

Assay [2] concerns C57Bl/6 mice. Kind of assay: Blood pressure by radiotelemetry after peptide injection. Type of assay: in vivo, mouse. The following applies: conscious C57Bl/6 mice, acute intraperitoneal injection, within 1.5 hours; 5 mg/kg or 20 mg/kg. How it is done: Blood pressure was measured using radiotelemetry units (Data Sciences International, DSI) implanted in C57Bl/6, Cre^−/Panx1^F1, Cre^−/Panx1^WT, Cre^+/Panx1^WT, and Cre^+/Panx1^F1 mice. The catheter of a radiotelemetry unit (TA11PA-C10, DSI) was implanted in the mouse left carotid artery under isoflurane anesthesia, and the catheter was tunneled trough the radiotransmitter placed in a subcutaneous pouch along the right flank of the mouse, as previously described. After implantation, mice were allowed to recover for seven days.
[…] Blood pressure was recorded for another 1.5 hours, and the mean arterial pressure data from 1 to 1.5 hours post injection was averaged and compared to the basal blood pressure. The ΔMAP was calculated by subtracting the average mean arterial pressure measured for 30 minutes prior to injection to the mean arterial pressure measured for 30 minutes one hour post injection. […]
Based on the central role of α1AR signaling in blood pressure homeostasis, we evaluated the effect of Panx1 deletion on systemic blood pressure. Blood pressure was measured using radiotelemetry units as previously described by us. Blood pressure was measured on the conditional KO mouse model for five days before proceeding to tamoxifen injections, and for another five days 24 hours after the last tamoxifen injection. […]

T1 sequence (Q9JIP4 whole entry): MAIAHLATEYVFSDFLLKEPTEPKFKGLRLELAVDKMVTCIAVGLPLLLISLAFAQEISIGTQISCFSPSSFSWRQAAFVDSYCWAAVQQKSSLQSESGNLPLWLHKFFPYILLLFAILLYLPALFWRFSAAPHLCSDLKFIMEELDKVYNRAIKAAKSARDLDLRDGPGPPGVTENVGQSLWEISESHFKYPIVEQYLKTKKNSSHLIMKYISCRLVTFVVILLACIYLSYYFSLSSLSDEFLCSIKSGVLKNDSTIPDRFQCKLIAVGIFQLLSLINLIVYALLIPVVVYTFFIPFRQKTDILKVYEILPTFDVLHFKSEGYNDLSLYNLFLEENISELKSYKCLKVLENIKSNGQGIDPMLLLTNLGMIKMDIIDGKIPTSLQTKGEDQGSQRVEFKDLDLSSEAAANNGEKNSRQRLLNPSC

Regarding “scrambled intracellular loop 2 IYLYVEQKPY (SEQ ID NO: 7) linked with a TAT sequence [Scrambled IL2]”, in assay [1], the “effect on phenylephrine-induced ATP release” value is reported as “no effect”. Besides, in assay [2], the “reduction of mean arterial blood pressure” value is “no significant effect”.

Regarding KYPIVEQYLKYGRKKQRRR [IL2], in assay [1], the “effect on phenylephrine-induced ATP release” value was “significantly decreased”. Besides, the “reduction of mean arterial blood pressure” value in assay [2] is reported as 13.0±3.3 mmHg.
